Laboratory results reported in ChEMBL document CHEMBL5316344, “Homologation of the Alkyl Side Chain of Antimitotic Phenyl 4-(2-Oxo-3-alkylimidazolidin-1-yl)benzenesulfonate Prodrugs Selectively Targeting CYP1A1-Expressing Breast Cancers Improves Their Stability in Rodent Liver Microsomes” (J Med Chem, 2023).
The source made the active and inactive calls. The rule behind the calls is not given here.

Experiments:
[1] = Selectivity ratio, ratio of IC50 for antiproliferative activity against ER/PR/HER2-negative human MDA-MB-231 cells to IC50 for antiproliferative activity against […] human MCF7 cells; assay type: functional
[2] = test system: HT-1080; experiment: Antitumor activity against human HT-1080 cells transfected with empty vector xenografted in chick embryo assessed as reduction in tumor wet weight at 1 ug, iv incubated for 17 days by CAM assay; assay type: functional; set-up: scale not given: the % may be the effect or the level left; conditions: dose 1 µg, time 17 day
[3] = Stability in human liver microsomes assessed as half life incubated for 60 mins by HPLC analysis; assay type: ADME, Microsome
[4] = Selectivity ratio, ratio of IC50 for antiproliferative activity against ER/PR/HER2-negative human MDA-MB-231 cells to IC50 for antiproliferative activity against ER/PR/HER2-negative human MDA-MB-468 cells; assay type: functional
[5] = biological target: T1, Cytochrome P450 1A1 (Homo sapiens, UniProt P04798); experiment: Prodrug conversion assessed as human CYP1A1-mediated CEU-602 formation incubated for 15 mins in presence of NADPH by HPLC analysis; assay type: ADME; conditions: recombinant enzyme, 0.25 h
T1 sequence (P04798 whole entry): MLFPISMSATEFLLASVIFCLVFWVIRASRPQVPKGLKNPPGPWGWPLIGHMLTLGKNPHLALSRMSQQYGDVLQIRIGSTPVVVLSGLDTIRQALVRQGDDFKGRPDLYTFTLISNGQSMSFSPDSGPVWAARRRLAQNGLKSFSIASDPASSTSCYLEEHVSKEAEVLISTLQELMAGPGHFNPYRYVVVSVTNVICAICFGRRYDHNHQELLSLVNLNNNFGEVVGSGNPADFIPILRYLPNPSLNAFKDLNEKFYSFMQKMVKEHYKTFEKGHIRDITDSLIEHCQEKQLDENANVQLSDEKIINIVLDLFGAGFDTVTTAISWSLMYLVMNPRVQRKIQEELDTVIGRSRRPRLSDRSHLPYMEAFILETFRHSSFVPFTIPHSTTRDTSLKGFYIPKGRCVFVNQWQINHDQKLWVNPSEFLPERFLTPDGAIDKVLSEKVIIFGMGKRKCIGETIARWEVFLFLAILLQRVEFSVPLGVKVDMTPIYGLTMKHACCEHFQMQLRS

[6] = Selectivity ratio, ratio of IC50 for antiproliferative activity against human HT-29 cells to IC50 for antiproliferative activity against human MCF7 cells expressing CYP1A1; assay type: functional
[7] = test system: MCF7; experiment: Antiproliferative activity against human MCF7 cells expressing CYP1A1 assessed as cell growth inhibition incubated for 48 hrs by sulforhodamine B assay; assay type: functional, cell-based; conditions: MCF7, 48 h
[8] = Toxicity in chick embryo xenografted with human […] cells transfected with empty vector assessed as mortality at 1 ug, iv incubated for 17 days; assay type: organism-based, Gallus gallus; conditions: chicken, in vivo, 408 h, dose 1 µg, time 17 day
[9] = test system: MDA-MB-468; experiment: Antiproliferative activity against ER/PR/HER2-negative human MDA-MB-468 cells assessed as cell growth inhibition incubated for 72 hrs by sulforhodamine B assay; assay type: functional, cell-based; conditions: MDA-MB-468, 72 h
[10] = test system: MCF7; experiment: Induction of cell cycle arrest in human MCF7 cells expressing CYP1A1 assessed as accumulation of cells at G2/M phase at 50 nM incubated for 48 hrs by DAPI staining based flow cytometric analysis (reference value: 16+/-2 %); assay type: functional
[11] = Stability in rat liver microsomes assessed as half life incubated for 60 mins by HPLC analysis; assay type: ADME, Microsome
[12] = test system: HT-29; experiment: Antiproliferative activity against human HT-29 cells assessed as cell growth inhibition incubated for 48 hrs by sulforhodamine B assay; assay type: functional, cell-based; conditions: HT-29, 48 h
[13] = test system: MDA-MB-231; experiment: Antiproliferative activity against ER/PR/HER2-negative human MDA-MB-231 cells assessed as cell growth inhibition incubated for 72 hrs by sulforhodamine B assay; assay type: functional, cell-based; conditions: MDA-MB-231, 72 h
[14] = test system: MCF7; experiment: Induction of cell cycle arrest in human MCF7 cells expressing CYP1A1 assessed as accumulation of cells at G0/G1 phase at 50 nM incubated for 48 hrs by DAPI staining based flow cytometric analysis (reference value: 74+/-2 %); assay type: functional
[15] = biological target: T2, Tubulin (Homo sapiens) (UniProt P68371+Q9H4B7+P0DPH7+P68366+Q13509+Q71U36+P04350+Q3ZCM7+P07437+P68363+Q9BQE3+Q6PEY2+Q13885+Q9BVA1+Q9BUF5); experiment: Disruption of microtubules in human MCF7 cells expressing CYP1A1 assessed as cytoskeleton disruption at 840 nM measured after 48 hrs by DAPI staining based fluorescence microscopic analysis; assay type: cell-based
[16] = Selectivity ratio, ratio of IC50 for antiproliferative activity against ER/PR/HER2-negative human MDA-MB-231 cells to IC50 for antiproliferative activity against ER/PR-negative HER2-positive human SK-BR-3 cells; assay type: functional
[17] = Toxicity in chick embryo xenografted with human […] cells expressing CYP1A1 assessed as mortality at 1 ug, iv incubated for 17 days; assay type: organism-based, Gallus gallus; conditions: chicken, in vivo, 408 h, dose 1 µg, time 17 day
[18] = Selectivity ratio, ratio of IC50 for antiproliferative activity against human M21 cells to IC50 for antiproliferative activity against human MCF7 cells expressing CYP1A1; assay type: functional
[19] = test system: HT-1080; experiment: Antitumor activity against human HT-1080 cells expressing CYP1A1 xenografted in chick embryo assessed as reduction in tumor wet weight at 1 ug, iv incubated for 17 days by CAM assay; assay type: functional; set-up: scale not given: the % may be the effect or the level left; conditions: dose 1 µg, time 17 day
[20] = Stability in mouse liver microsomes assessed as half life incubated for 60 mins by HPLC analysis; assay type: ADME, Microsome
[21] = test system: HT-1080; experiment: Antitumor activity against human HT-1080 cells xenografted in chick embryo assessed as reduction in tumor wet weight at 1 ug, iv incubated for 17 days by CAM assay; assay type: functional; set-up: scale not given: the % may be the effect or the level left; conditions: dose 1 µg, time 17 day
[22] = Toxicity in chick embryo xenografted with human […] cells assessed as mortality at 1 ug, iv incubated for 17 days; assay type: organism-based, Gallus gallus; conditions: chicken, in vivo, 408 h, dose 1 µg, time 17 day
[23] = test system: T47D; experiment: Antiproliferative activity against ER/PR-positive HER2-negative human T47D cells assessed as cell growth inhibition incubated for 72 hrs by sulforhodamine B assay; assay type: functional, cell-based
[24] = test system: HT-1080; experiment: Antiproliferative activity against human HT-1080 cells transfected with empty vector assessed as cell growth inhibition incubated for 48 hrs by sulforhodamine B assay; assay type: functional, cell-based; conditions: HT-1080, 48 h
[25] = test system: M21; experiment: Antiproliferative activity against human M21 cells assessed as cell growth inhibition incubated for 48 hrs by sulforhodamine B assay; assay type: functional, cell-based; conditions: M21, 48 h
[26] = test system: MCF7; experiment: Induction of cell cycle arrest in human MCF7 cells expressing CYP1A1 assessed as accumulation of cells at S phase at 50 nM incubated for 48 hrs by DAPI staining based flow cytometric analysis (reference value: 11+/-1 %); assay type: functional
[27] = test system: MCF7; experiment: Antiproliferative activity against […] human MCF7 cells assessed as cell growth inhibition incubated for 72 hrs by sulforhodamine B assay; assay type: functional, cell-based; conditions: MCF7, 72 h
[28] = Selectivity ratio, ratio of IC50 for antiproliferative activity against human HT-1080 cells transfected with empty vector to IC50 for antiproliferative activity against human HT-1080 cells expressing CYP1A1; assay type: functional
[29] = test system: SK-BR-3; experiment: Antiproliferative activity against ER/PR-negative HER2-positive human SK-BR-3 cells assessed as cell growth inhibition incubated for 72 hrs by sulforhodamine B assay; assay type: functional, cell-based; conditions: SK-BR-3, 72 h
[30] = test system: HT-1080; experiment: Antiproliferative activity against human HT-1080 cells expressing CYP1A1 assessed as cell growth inhibition incubated for 48 hrs by sulforhodamine B assay; assay type: functional, cell-based; conditions: HT-1080, 48 h
[31] = Selectivity ratio, ratio of IC50 for antiproliferative activity against ER/PR/HER2-negative human MDA-MB-231 cells to IC50 for antiproliferative activity against ER/PR-positive HER2-negative human T47D cells; assay type: functional
[32] = Stability in rat liver microsomes assessed as intrinsic clearance incubated for 60 mins by HPLC analysis; assay type: ADME, Microsome; conditions: read-out: CLH
[33] = biological target: T1, Cytochrome P450 1A1; experiment: Binding affinity to human CYP1A1 assessed as inhibition of conversion of 7-ethoicyresorufin into fluorescent resorufin by measuring inhibition constant preincubated for 5 mins followed by […] addition measured every minute for 15 mins by EROD assay; assay type: ADME
[34] = test system: HT-1080; experiment: Antiproliferative activity against human HT-1080 cells assessed as cell growth inhibition incubated for 48 hrs by sulforhodamine B assay; assay type: functional, cell-based; conditions: HT-1080, 48 h
[35] = Selectivity ratio, ratio of IC50 for antiproliferative activity against human HT-1080 cells to IC50 for antiproliferative activity against human HT-1080 cells expressing CYP1A1; assay type: functional
[36] = Stability in mouse liver microsomes assessed as intrinsic clearance incubated for 60 mins by HPLC analysis; assay type: ADME, Microsome; conditions: read-out: CLH
[37] = Stability in human liver microsomes assessed as intrinsic clearance incubated for 60 mins by HPLC analysis; assay type: ADME, Microsome; conditions: read-out: CLH
[38] = test system: MCF7; experiment: Induction of cell cycle arrest in human MCF7 cells expressing CYP1A1 assessed as accumulation of cells at S phase at 25 nM incubated for 48 hrs by DAPI staining based flow cytometric analysis (reference value: 11+/-1 %); assay type: functional
[39] = biological target: T2, Tubulin (Homo sapiens); experiment: Disruption of microtubules in human MCF7 cells expressing CYP1A1 assessed as cytoskeleton disruption at 15 nM measured after 48 hrs by DAPI staining based fluorescence microscopic analysis; assay type: cell-based
[40] = test system: MCF7; experiment: Induction of cell cycle arrest in human MCF7 cells expressing CYP1A1 assessed as accumulation of cells at G0/G1 phase at 25 nM incubated for 48 hrs by DAPI staining based flow cytometric analysis (reference value: 74+/-2 %); assay type: functional
[41] = test system: MCF7; experiment: Induction of cell cycle arrest in human MCF7 cells expressing CYP1A1 assessed as accumulation of cells at G2/M phase at 25 nM incubated for 48 hrs by DAPI staining based flow cytometric analysis (reference value: 16+/-2 %); assay type: functional

| SMILES | Ratio IC50 [1] | Activity [2] | Ratio IC50 [4] | Ratio IC50 [6] | IC50 [7] | Activity [8] | IC50 [9] | IC50 [12] | IC50 [13] | Ratio IC50 [16] | Activity [17] | Ratio IC50 [18] | Activity [19] | Activity [21] | Activity [22] | IC50 [23] | IC50 [25] | IC50 [27] | IC50 [29] | Ratio IC50 [31] | other results |
| --- | --- | --- | --- | --- | --- | --- | --- | --- | --- | --- | --- | --- | --- | --- | --- | --- | --- | --- | --- | --- | --- |
| CCCCCN1CCN(c2ccc(S(=O)(=O)Oc3cc(OC)c(OC)c(OC)c3)cc2)C1=O | 230 | 93% | 410 | >63 | 200 nM | Non-Toxic | 21 nM | > 12500 nM | 8600 nM | 2700 | Non-Toxic | >63 | 62% | 82% | Non-Toxic | 1000 nM | > 12500 nM | 38 nM | 3.2 nM | 8.6 | half-life [3]: 57 min; Drug metabolism [5]: Metabolite_Detected; Activity [10]: 42%; half-life [11]: 125 min; Activity [14]: 44%; Activity [15]: Active; half-life [20]: 18.9 min; IC50 [24]: 5900 nM; Activity [26]: 14%; Ratio IC50 [28]: 197; IC50 [30]: 30 nM; microsomal CLint [32]: 11.1 µL/min/mg; Ki [33]: 1400 nM; IC50 [34]: 4440 nM; Ratio IC50 [35]: 148; microsomal CLint [36]: 74 µL/min/mg; microsomal CLint [37]: 24.3 µL/min/mg |
| COc1cc(OS(=O)(=O)c2ccc(N3CCNC3=O)cc2)cc(OC)c1OC | 2 | 79% | 1.3 | 1.6 | 25 nM | Non-Toxic | 5.3 nM | 40 nM | 6.9 nM | 2.3 | Non-Toxic | 1.6 | 68% | 49% | Non-Toxic | 13 nM | 40 nM | 3.4 nM | 3 nM | 0.53 | Activity [38]: 9%; Activity [39]: Active; Activity [40]: 28%; Activity [41]: 63% |
